According to article PMC3387026, “Substrate Cooperativity in Marine Luciferases” (PLoS ONE, 2012):

Columns and labels:
Test in all cases: bioluminescence (luminometer), light integrated over first […] s
Type in all cases: biochemical
Conditions in all cases: Tris-HCl pH 7.5, BSA; varied luciferin; O2 co-substrate
GLuc [1] = target: T1, GLuc (Gaussia princeps (in: crustaceans), UniProt Q9BLZ2, M60L/M127L)
T1 construct: amino-terminal His tag, expressed in E. coli SHuffle, nickel-purified

RLuc = target: T2, RLuc (Renilla reniformis, UniProt P27652)
T2 construct: His-tagged, expressed in NEB T7 Express cells, nickel-purified; 37 kDa monomer
T2 sequence (P27652 1-311): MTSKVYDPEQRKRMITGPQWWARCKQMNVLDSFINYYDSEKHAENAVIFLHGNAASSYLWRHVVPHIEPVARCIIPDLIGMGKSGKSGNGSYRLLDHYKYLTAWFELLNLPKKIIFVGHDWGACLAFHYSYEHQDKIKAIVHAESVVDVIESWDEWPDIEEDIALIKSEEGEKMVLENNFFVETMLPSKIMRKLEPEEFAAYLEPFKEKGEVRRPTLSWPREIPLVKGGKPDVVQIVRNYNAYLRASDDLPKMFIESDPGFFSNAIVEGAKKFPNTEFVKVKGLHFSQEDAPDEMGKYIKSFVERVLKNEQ

GLuc [2] = target: T3, GLuc (Gaussia princeps (in: crustaceans), UniProt Q9BLZ2)
T3 construct: amino-terminal His tag, expressed in E. coli SHuffle, nickel-purified
T3 sequence (Q9BLZ2 entry or part of it): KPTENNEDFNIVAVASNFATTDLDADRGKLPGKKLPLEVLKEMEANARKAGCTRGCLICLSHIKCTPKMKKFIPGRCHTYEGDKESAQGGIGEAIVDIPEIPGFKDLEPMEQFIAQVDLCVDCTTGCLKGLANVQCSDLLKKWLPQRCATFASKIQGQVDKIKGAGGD

T1 sequence (Q9BLZ2 entry or part of it M60L/M127L): as the sequence (Q9BLZ2 entry or part of it) above, with M43L, M110L counted along it

With `Oc1ccc(Cc2nc3c(Cc4ccccc4)nc(-c4ccc(O)cc4)cn3c2O)cc1` [coelenterazine] the “bioluminescence (luminometer), light integrated over first 10 s” value (“bioluminescence … over first 10 s” for short) (GLuc [1]) was “GLuc, MLuc and the variant GLuc M43L/M110L of Welsh et al”, the “bioluminescence … over first 10 s” value (RLuc) was “binding a single molecule of coelenterazine is sufficient for catalysis” and the “bioluminescence … over first 10 s” value (GLuc [2]) was “positive cooperative response of the GLuc activity with respect to coelenterazine”.
